Measurements taken from US20040162295A1, “Pharmaceutical compound” (priority 2001, published 2004).

Experiments:
Factor Xa = Factor Xa (Homo sapiens, UniProt P00742); assay: Factor Xa inhibition; assay type: biochemical
Oral exposure = assay type: in vivo
[1] = Behaviour of the solid in the presence of water; assay type: physicochemical; details: in the presence of water / suspended in distilled water, stirred 24 hours
Protocol: Stability in the presence of water is desirable in a product intended to be formulated in a pharmaceutical composition using a process that brings it into contact with water, such as a wet granulation process used in the preparation of a tablet.
1.5 g of Form 1 of 1-(indole-6-carbonyl-D-phenylglycinyl)-4-(1-methylpiperidin-4-yl)piperazine difumarate was suspended in 10 ml of distilled water and stirred for 24 hours. The suspension thickened after 5-6 hours, but stirring was continued for the remaining time. The suspension was centrifuged to isolate the solid. The solid was washed with cyclohexane and dried at ambient temperature under vacuum.

[2] = Stability study on crystalline forms (temperature, humidity, light); assay type: physicochemical; details: for Morphological stability: high relative humidity (above 70%)
Protocol: Notes: % expressed with reference to material stored at −70° C.
% RH means percentage relative humidity.

[3] = Vapor pressure isotherm determination / hygroscopicity; assay type: physicochemical
From the text: The mono hydrochloride salt of 1-(indole-6-carbonyl-D-phenylglycinyl)-4-(1-methylpiperidin-4-yl)piperazine has also been prepared. The monohydrochloride salt was initially obtained as an amorphous solid. This solid was cycled through a vapor pressure isotherm determination, in which the solid initially deliquesced, then dehydrated.
Using a microbalance flow system, the original material was cycled through a vapor pressure isotherm determination, where the material deliquesced, then allowed to deydrate.

[4] = 40° C./75% RH, 7 Days, difumarate
[5] = 40° C./75% RH, 28 Days, difumarate

Chain of Factor Xa (P00742 235-488 limits assumed): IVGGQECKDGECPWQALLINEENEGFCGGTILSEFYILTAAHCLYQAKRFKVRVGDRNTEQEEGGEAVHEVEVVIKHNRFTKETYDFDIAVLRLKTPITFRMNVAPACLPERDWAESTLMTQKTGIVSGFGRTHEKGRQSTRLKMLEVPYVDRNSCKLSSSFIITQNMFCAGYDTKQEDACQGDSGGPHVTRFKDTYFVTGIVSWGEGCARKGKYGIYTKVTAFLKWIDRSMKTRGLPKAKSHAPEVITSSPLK
Chain of Factor Xa (P00742 41-179 partner limits assumed): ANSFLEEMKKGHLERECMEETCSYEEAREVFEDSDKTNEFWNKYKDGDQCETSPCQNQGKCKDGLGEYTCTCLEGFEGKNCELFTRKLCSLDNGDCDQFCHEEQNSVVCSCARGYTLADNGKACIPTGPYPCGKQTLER

SMILES	Stability of the crystalline form in the presence of water [1]	Stability study, % expressed with reference to material stored at −70° C. [2, 4] [%]	Stability study, % expressed with reference to material stored at −70° C. [2, 5] [%]	Stability study, % expressed with reference to material stored at −70° C. ([2]; 70° C., 7 Days, difumarate) [%]	Stability study, % expressed with reference to material stored at −70° C. ([2]; 70° C., 28 Days, difumarate) [%]	Morphological stability [2]	further results
CN1CCC(N2CCN(C(=O)[C@H](NC(=O)c3ccc4cc[nH]c4c3)c3ccccc3)CC2)CC1 [1-(indole-6-carbonyl-D-phenylglycinyl)-4-(1-methylpiperidin-4-yl)piperazine]	–	–	–	–	–	–	Inhibition of Factor Xa (Factor Xa): potent and selective inhibitor; Oral exposure (Oral exposure): good
CN1CCC(N2CCN(C(=O)[C@H](NC(=O)c3ccc4cc[nH]c4c3)c3ccccc3)CC2)CC1.O=C(O)/C=C/C(=O)O.O=C(O)/C=C/C(=O)O [Form 1, 1-(indole-6-carbonyl-D-phenylglycinyl)-4-(1-methylpiperidin-4-yl)piperazine difumarate]	converted into Form 2	99.6	99.5	99.0	100.2	morphologically stable	Stability study, % expressed with reference to material stored at −70° C. ([2]; 40° C., 7 Days): 100.5%; Stability study, % expressed with reference to material stored at −70° C. ([2]; 40° C., 28 Days): 99.8%; Stability study, % expressed with reference to material stored at −70° C. ([2]; 50° C., 7 Days): 99.3%; Stability study, % expressed with reference to material stored at −70° C. ([2]; 50° C., 28 Days): 99.4%; Stability study, % expressed with reference to material stored at −70° C. ([2]; Light, 7 Days): 99.7%; Stability study, % expressed with reference to material stored at −70° C. ([2]; Light, 28 Days): 98.9%
CN1CCC(N2CCN(C(=O)[C@H](NC(=O)c3ccc4cc[nH]c4c3)c3ccccc3)CC2)CC1.O=C(O)/C=C/C(=O)O.O=C(O)/C=C/C(=O)O [Form 2, 1-(indole-6-carbonyl-D-phenylglycinyl)-4-(1-methylpiperidin-4-yl)piperazine difumarate]	–	99.3	99.6	99.1	99.0	morphologically stable	–
CN1CCC(N2CCN(C(=O)[C@H](NC(=O)c3ccc4cc[nH]c4c3)c3ccccc3)CC2)CC1 [chloroform solvate, 1-(indole-6-carbonyl-D-phenylglycinyl)-4-(1-methylpiperidin-4-yl)piperazine]	tended to convert into a gel	–	–	–	–	–	–
CN1CCC(N2CCN(C(=O)[C@H](NC(=O)c3ccc4cc[nH]c4c3)c3ccccc3)CC2)CC1.Cl [compound 1, 1-(indole-6-carbonyl-D-phenylglycinyl)-4-(1-methylpiperidin-4-yl)piperazine hydrochloride]	–	–	–	–	–	–	Hygroscopicity ([3]; amorphous and crystalline material): hygroscopic; Behaviour of the solid in vapor pressure isotherm determination ([3]; amorphous solid, microbalance flow system): deliquesced
